Source: PMC12196007 (Molecules, 2025)
Where “and” joins values, the source holds several entries; their conditions need not be identical. Identical values can stand only once. Like-named read-outs stand apart in the source and are kept apart here.

What was measured:
[1] = In vitro drug release (dialysis bag, PBS); type: physicochemical
Protocol: The release media were designed to simulate physiological conditions of the human gastrointestinal tract: pH 2.0 (simulated gastric fluid), pH 6.8 (simulated intestinal fluid), and pH 7.4 (to mimic the alkaline colonic terminus). […] Aliquots (0.5 mL) were collected at predetermined intervals (0.5, 1, 2, 4, 6, 8, 12, and 24 h), with the release medium replenished immediately after each sampling to maintain sink conditions. The experiment was repeated three times. The drug release was quantified using a validated HPLC method. Cumulative release percentages were plotted against time, and release kinetics were analyzed using four models: zero-order kinetics, first-order kinetics, Higuchi equation, and Weibull distribution function. Key parameters, including T50 (time required for 50% drug dissolution) and Td (time required for 63.2% drug dissolution), were calculated to evaluate pH-dependent release profiles.

Caco-2 cells = assay: Cellular uptake in Caco-2 cell monolayer; type: in vitro ADME, human; settings: Caco-2, 200 μg·mL−1 CUR, 20 min
Protocol: Caco-2 cells were seeded into the donor chamber of Transwell inserts at a density of 1 × 10^5 cell·mL^−1 and cultured in complete medium. Transepithelial electrical resistance (TEER) was measured on the 0th, 3rd, 5th, 7th, 10th, and 15th days to monitor monolayer integrity. A TEER value exceeding 700 Ω·cm² was established as the threshold for successful formation of the human intestinal epithelial barrier model. Following model validation, the cell surface was equilibrated with PBS for 30 min and rinsed to remove debris. […] Cellular uptake was terminated by rapid washing with ice-cold PBS to remove surface-bound drug and nonviable cells. […] Cellular uptake was calculated according to Equation (4).
The established Caco-2 cell monolayer model imitating human intestinal epithelium was equilibrated in pH 7.4 PBS at 37 °C within a CO2 incubator for 30 min. After removal of PBS, the cell surface was rinsed three times. […] The uptake process was terminated by ice-cold PBS, and residual solutions were removed by washing. Cells were then scraped into centrifuge tubes, sonicated, and quantified for uptake measurements.

[2] = 2 h incubation of CUR solutions with intestinal segments (residual CUR); type: in vitro ADME, rats
[3] = In situ single-pass intestinal perfusion; type: in vivo, Sprague–Dawley (SD) rats; settings: for Papp: both sexes, Sprague-Dawley, rat, other: in situ single-pass intestinal perfusion, read-out: Peff (effective permeability coefficient)
Protocol: The rats were anesthetized and secured in a supine position on a surgical platform maintained at 37 °C. […] A 10 cm intestinal segment was isolated, and incisions were made at both ends. Silicone tubes were inserted into the incisions and ligated. […] Subsequently, the test sample was perfused through the intestinal loop. […] The collected samples were centrifuged, and the supernatant was mixed with methanol to precipitate proteins. After a second centrifugation, the resulting supernatant was analyzed by HPLC.

[4] = In vivo pharmacokinetic study, oral gavage; set-up: species or system SD rats
Protocol: The analysis was performed on a Q Exactive™ hybrid quadrupole-Orbitrap™ mass spectrometer (Thermo Fisher Scientific, USA) with the following parameters: Chromatographic separation was achieved by Agilent ZORBAX SB-C18 column (150 mm × 4.6 mm, 5 μm) with a mobile phase of acetonitrile and 0.1% formic acid aqueous solution (48:52, v/v) at a flow rate of 1 mL·min^−1 while maintaining the column temperature at 30 °C. The mass spectrometer operated in positive ion mode with an electrospray ionization (ESI) source, employing multiple reaction monitoring (MRM) for detection. Key ionization parameters included a capillary voltage of 3.0 kV and nitrogen as the collision gas.
Twelve SD rats (220 ± 20 g, equal numbers of males and females) were fasted for 24 h with free access to water and randomly allocated into two groups (n = 6 per group). […] Blood samples (~0.5 mL) were collected from the jugular vein into anticoagulant tubes at 0, 0.25, 0.5, 1, 2, 4, 6, 8, 12, and 24 h after administration. After centrifugation to collect the supernatant, samples were spiked with 20 μL of a 100 μg·mL^−1 internal standard solution, extracted twice with ethyl acetate for protein precipitation, and the combined organic phases were evaporated using a refrigerated vacuum concentrator.

[5] = Stability of CUR sample solutions at room temperature (HPLC method validation); type: physicochemical; settings: 0-20 h
Protocol: 2.4 Precision and Stability […]
was diluted to three concentration levels: low (1 μg·mL-1), medium (10 μg·mL-1), and […]
content was measured by HPLC in triplicate to assess intraday precision. The same samples were analyzed once daily for five consecutive days to assess interday […]
temperature. Samples were collected at 0, 4, 8, 12, and 20 hours and analyzed by […]
for low, medium, and high concentrations, respectively. The interday RSD values were 1.97%, 2.00%, and 1.94%, indicating good method precision. Stability results […]
temperature for up to 20 hours. […]

[6] = cited from earlier work
[7] = both sexes, Sprague-Dawley, rat, plasma, po, 50 mg/kg

## COc1cc(/C=C/C(=O)CC(=O)/C=C/c2ccc(O)c(OC)c2)ccc1O [CUR, Curcumin]
[1]; 4 h
  Cumulative release of CUR at 4 h: ~80%
[1]; pH 2.0, 24 h
  Cumulative release rate at 24 h: 88.89%
[1]; pH 6.8, 24 h
  Cumulative release rate at 24 h: 90.17%
[1]; pH 7.4, 24 h
  Cumulative release rate at 24 h: 86.64%
Caco-2 cells; n = 3
  Drug Intake, mean (x¯): 43.82 ± 1.74 µg/mg
Caco-2 cells; per mg protein
  Drug Intake (single replicates): 42.03 µg/mg and 44.28 µg/mg and 45.46 µg/mg
[2]; colonic segment
  Residual CUR percentage: 92.90 ± 0.96%
[2]; duodenal segment
  Residual CUR percentage: 99.63 ± 0.34%
[2]; ileal segment
  Residual CUR percentage: 94.41 ± 1.57%
[2]; jejunal segment
  Residual CUR percentage: 95.63 ± 0.47%
[3]; colon
  Papp: 8.3 ± 0.1 ×10⁻⁶ cm/s
  Ka (absorption rate constant): 0.29 ± 0.0095 min⁻¹
[3]; duodenum
  Papp: 27.2 ± 0.5 ×10⁻⁶ cm/s
  Ka (absorption rate constant): 0.52 ± 0.0048 min⁻¹
[3]; ileum
  Papp: 23.3 ± 1.1 ×10⁻⁶ cm/s
  Ka (absorption rate constant): 0.47 ± 0.0208 min⁻¹
[3]; jejunum
  Papp: 26.1 ± 3.7 ×10⁻⁶ cm/s
  Ka (absorption rate constant): 0.47 ± 0.0088 min⁻¹
[3]; colon, 15 min
  Remaining dosage: 97.47 ± 0.83%
[3]; colon, 30 min
  Remaining dosage: 92.6 ± 1.04%
[3]; colon, 45 min
  Remaining dosage: 87.97 ± 1.07%
[3]; colon, 60 min
  Remaining dosage: 79.51 ± 3.48%
[3]; colon, 75 min
  Remaining dosage: 78.03 ± 0.99%
[3]; colon, 90 min
  Remaining dosage: 73.23 ± 0.45%
[3]; colon, 105 min
  Remaining dosage: 70.98 ± 0.98%
[3]; colon, 120 min
  Remaining dosage: 66.55 ± 1.07%
[3]; duodenum, 15 min
  Remaining dosage: 93.61 ± 0.59%
[3]; duodenum, 30 min
  Remaining dosage: 89.22 ± 1.18%
[3]; duodenum, 45 min
  Remaining dosage: 79.11 ± 0.58%
[3]; duodenum, 60 min
  Remaining dosage: 69.18 ± 1.92%
[3]; duodenum, 75 min
  Remaining dosage: 61.93 ± 1.54%
[3]; duodenum, 90 min
  Remaining dosage: 54.95 ± 0.33%
[3]; duodenum, 105 min
  Remaining dosage: 45.36 ± 1.72%
[3]; duodenum, 120 min
  Remaining dosage: 42.13 ± 0.88%
[3]; ileum, 15 min
  Remaining dosage: 93.68 ± 0.37%
[3]; ileum, 30 min
  Remaining dosage: 89.84 ± 0.89%
[3]; ileum, 45 min
  Remaining dosage: 82.04 ± 1.06%
[3]; ileum, 60 min
  Remaining dosage: 72.17 ± 1.08%
[3]; ileum, 75 min
  Remaining dosage: 64.11 ± 1.25%
[3]; ileum, 105 min
  Remaining dosage: 51.48 ± 1.18%
[3]; ileum, 120 min
  Remaining dosage: 45.11 ± 3.27%
[3]; jejunum, 15 min
  Remaining dosage: 94.43 ± 2.05%
[3]; jejunum, 30 min
  Remaining dosage: 90.52 ± 0.80%
[3]; jejunum, 45 min
  Remaining dosage: 87.97 ± 0.43%
[3]; jejunum, 60 min
  Remaining dosage: 77.07 ± 0.97%
[3]; jejunum, 75 min
  Remaining dosage: 70.44 ± 0.82%
[3]; jejunum, 90 min
  Remaining dosage: 62.99 ± 0.92%
[3]; jejunum, 105 min
  Remaining dosage: 54.99 ± 0.74%
[3]; jejunum, 120 min
  Remaining dosage: 46.26 ± 0.94%
[4]; [7]
  AUC(0-inf): 144 ± 25.4 ng·h/mL
  AUC(0-t): 106 ± 21.8 ng·h/mL
  Cmax: 64.9 ± 12 ng/mL
  Tmax: 1 h
  half-life: 3.97 ± 1.48 h
[4]; both sexes, Sprague-Dawley, rat, plasma, po, 50 mg/kg, read-out: MRT0-t
  MRT last: 2.35 ± 0.67 h
[4]; both sexes, Sprague-Dawley, rat, plasma, po, 50 mg/kg, read-out: MRT0-∞
  MRT inf: 5.13 ± 1.36 h
[4]; rats, oral, 50 mg·kg−1
  Time within which almost completely eliminated: ≤ 4 h
[5]; CUR solution for intestinal mucus penetration study, 10 μg·mL-1, room temperature
  Stability: RSD of CUR concentration: 0.28%
[5]; CUR solution for release studies, 50 μg·mL-1, room temperature
  Stability: RSD of CUR concentration: 0.63%
[6]
  Plasma concentrations as share of the administered dose (oral bioavailability): ~1%
